# In patent publication US20160237067A1, “SUBSTITUTED PHENYLALANINE DERIVATIVES” (BAYER PHARMA AKTIENGESELLSCHAFT, priority 2013, published 2016):
# Counter-ions that a name gives are not always drawn.
# Legend:
# [1] = system: human and animal plasma; assay: Determination of anticoagulatory activity: activated partial thromboplastin time (aPTT) in plasma; format: biochemical; conditions: C.K. Prest kit, 37° C., 3 minutes incubation, plasma species of Table B not stated
# Procedure: The anticoagulatory activity of the test substances is determined in vitro in human and animal plasma (for example mouse, rat, rabbit, pig and dog plasma). To this end, blood is drawn off in a mixing ratio of sodium citrate/blood of 1:9 using a 0.11 molar sodium citrate solution as receiver. Immediately after the blood has been drawn off, it is mixed thoroughly and centrifuged at about 4000 g for 15 minutes. The supernatant is pipetted off.
# The activated partial thromboplastin time (aPTT) is determined in the presence of varying concentrations of test substance or the corresponding solvent using a commercial test kit (C.K. Prest from Diagnostica Stago). The test compounds are incubated with the plasma and the PTT reagent (cephalin, kaolin) at 37° C. for 3 minutes. Coagulation is then started by addition of a 25 mM aqueous calcium chloride solution, and the time when coagulation occurs is determined. The concentration of test substance which brings about a 1.5-fold extension of the aPTT is determined Activity data from this test are listed in Table B below: […]
# [2] = biological target: T1, human factor XIa (Homo sapiens, UniProt P03951); assay: Measurement of FXIa inhibition (fluorogenic peptide substrate Boc-Glu(OBzl)-Ala-Arg-AMC); format: biochemical; conditions: factor XIa from Kordia 0.45 nM; 15 min preincubation; 30 min at 22° C.
# T1 construct: purchased Kordia
# Procedure: The factor XIa inhibition of the substances according to the invention is determined using a biochemical test system which utilizes the reaction of a peptidic factor XIa substrate to determine the enzymatic activity of human factor XIa. Here, factor XIa cleaves from the peptic factor XIa substrate the C-terminal aminomethylcoumarin (AMC), the fluorescence of which is measured. The determinations are carried out in microtitre plates.
# Test substances are dissolved in dimethyl sulphoxide and serially diluted in dimethyl sulphoxide (3000 μM to 0.0078 μM; resulting final concentrations in the test: 50 μM to 0.00013 μM). In each case 1 μl of the diluted substance solutions is placed into the wells of white microtitre plates from Greiner (384 wells). Subsequently, the following are added successively: 20 μl of assay buffer (50 mmol/l Tris buffer pH 7.4; 100 mmol/l sodium chloride; 5 mmol/l calcium chloride; 0.1% bovine serum albumin) and 20 μl of factor XIa from Kordia (0.45 nM in assay buffer). After 15 min of incubation, the enzyme reaction is started by addition of 20 μl of the factor XIa substrate Boc-Glu(OBzl)-Ala-Arg-AMC dissolved in assay buffer (10 μM in assay buffer) from Bachem, the mixture is incubated at room temperature (22° C.) for 30 min and fluorescence is then measured (excitation: 360 nm, emission: 460 nm). The measured emissions of the test batches with test substance are compared to those of control batches without test substance (only dimethyl sulphoxide instead of test substance in dimethyl sulphoxide), and IC50 values are calculated from the concentration/activity relationships.
# T1 sequence (P03951 388-625 limits assumed): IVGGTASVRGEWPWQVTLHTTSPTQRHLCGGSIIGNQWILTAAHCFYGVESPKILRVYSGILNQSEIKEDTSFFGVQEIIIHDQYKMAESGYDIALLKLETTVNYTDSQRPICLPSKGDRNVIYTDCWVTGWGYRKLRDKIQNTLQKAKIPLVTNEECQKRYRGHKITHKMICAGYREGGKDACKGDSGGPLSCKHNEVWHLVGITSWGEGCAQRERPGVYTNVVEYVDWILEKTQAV
# T1 sequence (P03951 19-387 partner limits assumed): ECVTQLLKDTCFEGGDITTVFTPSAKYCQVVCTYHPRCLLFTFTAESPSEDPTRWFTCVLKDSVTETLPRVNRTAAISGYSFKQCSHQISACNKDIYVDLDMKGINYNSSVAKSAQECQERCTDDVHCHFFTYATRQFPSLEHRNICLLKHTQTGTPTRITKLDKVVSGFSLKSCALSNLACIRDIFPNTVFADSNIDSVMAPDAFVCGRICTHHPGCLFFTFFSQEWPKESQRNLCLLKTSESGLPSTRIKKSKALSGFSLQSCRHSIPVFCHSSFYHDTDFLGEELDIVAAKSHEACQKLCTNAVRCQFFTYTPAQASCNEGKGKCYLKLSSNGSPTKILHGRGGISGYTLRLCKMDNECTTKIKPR
SMILES,aPTT (concentration of test substance which brings about a 1.5-fold extension of the aPTT) [1] [µmol/L],IC50 [2] [nM]
"NC[C@H]1CC[C@H](C(=O)N[C@@H](Cc2ccc(-c3cccc(C(=O)NC4CCNCC4)c3F)cc2)C(=O)Nc2ccc(-c3nn[nH]n3)cc2)CC1 [Example 15, 4′-[(2S)-2-({[trans-4-(Aminomethyl)cyclohexyl]carbonyl}amino)-3-oxo-3-{[4-(2H-tetrazol-5-yl)phenyl]amino}propyl]-2-fluoro-N-(piperidin-4-yl)biphenyl-3-carboxamide hydrochloride]",0.52,10
"CCN(CC)CCNC(=O)c1cccc(-c2ccc(C[C@H](NC(=O)[C@H]3CC[C@H](CN)CC3)C(=O)Nc3ccc(-c4nn[nH]n4)cc3)cc2)c1F [Example 16, 4′-[(2S)-2-({[trans-4-(Aminomethyl)cyclohexyl]carbonyl}amino)-3-oxo-3-{[4-(2H-tetrazol-5-yl)phenyl]amino}propyl]-N-[2-(diethylamino)ethyl]-2-fluorobiphenyl-3-carboxamide hydrochloride]",0.2,9
"NC[C@H]1CC[C@H](C(=O)N[C@@H](Cc2ccc(-c3cccc(C(=O)N[C@@H]4CCNC4)c3F)cc2)C(=O)Nc2ccc(-c3nn[nH]n3)cc2)CC1 [Example 17, 4′-[(2S)-2-({[trans-4-(Aminomethyl)cyclohexyl]carbonyl}amino)-3-oxo-3-{[4-(2H-tetrazol-5-yl)phenyl]amino}propyl]-2-fluoro-N-[(3R)-pyrrolidin-3-yl]biphenyl-3-carboxamide hydrochloride]",0.58,9.3
"NC[C@H]1CC[C@H](C(=O)N[C@@H](Cc2ccc(-c3cccc(C(=O)N4CCNCC4)c3F)cc2)C(=O)Nc2ccc(-c3nn[nH]n3)cc2)CC1 [Example 18, trans-4-(Aminomethyl)-N-[(2S)-3-[2′-fluoro-3′-(piperazin-1-ylcarbonyl)biphenyl-4-yl]-1-oxo-1-{[4-(2H-tetrazol-5-yl)phenyl]amino}propan-2-yl]cyclohexanecarboxamide hydrochloride]",0.35,16
"CCN(CC)CCCNC(=O)c1ccc(C)c(-c2ccc(C[C@H](NC(=O)[C@H]3CC[C@H](CN)CC3)C(=O)Nc3ccc(-c4nn[nH]n4)cc3)cc2)c1 [Example 19, 4′-[(2S)-2-({[trans-4-(Aminomethyl)cyclohexyl]carbonyl}amino)-3-oxo-3-{[4-(2H-tetrazol-5-yl)phenyl]amino}propyl]-N-[3-(diethylamino)propyl]-6-methylbiphenyl-3-carboxamide hydrochloride]",0.26,6.4
"NC[C@H]1CC[C@H](C(=O)N[C@@H](Cc2ccc(-c3cccc(C(=O)N4CCOCC4)c3)cc2)C(=O)Nc2ccc(-c3nn[nH]n3)cc2)CC1 [Example 20, trans-4-(Aminomethyl)-N-[(2S)-3-[3′-(morpholin-4-ylcarbonyl)biphenyl-4-yl]-1-oxo-1-{[4-(2H-tetrazol-5-yl)phenyl]amino}propan-2-yl]cyclohexanecarboxamide hydrochloride]",0.39,2.7
"Cc1ccc(C#N)cc1-c1ccc(C[C@H](NC(=O)[C@H]2CC[C@H](CN)CC2)C(=O)Nc2ccc(-c3nn[nH]n3)cc2)cc1 [Example 21, trans-4-(Aminomethyl)-N-[(2S)-3-(5′-cyano-2′-methylbiphenyl-4-yl)-1-oxo-1-{[4-(2H-tetrazol-5-yl)phenyl]amino}propan-2-yl]cyclohexanecarboxamide hydrochloride]",0.22,8.3
"Cc1ccc(-c2ccc(C[C@H](NC(=O)[C@H]3CC[C@H](CN)CC3)C(=O)Nc3ccc(-c4nn[nH]n4)cc3)cc2)cc1NC(=O)C1CCNCC1 [Example 22, N-{4[(2S)-2-({[trans-4-(Aminomethyl)cyclohexyl]carbonyl}amino)-3-oxo-3-{[4-(2H-tetrazol-5-yl)phenyl]amino}propyl]-4-methylbiphenyl-3-yl}piperidine-4-carboxamide hydrochloride]",0.34,25
"CCc1ccc(C(=O)NCCN(CC)CC)cc1-c1ccc(C[C@H](NC(=O)[C@H]2CC[C@H](CN)CC2)C(=O)Nc2ccc(-c3nn[nH]n3)cc2)cc1 [Example 23, 4′-[(2S)-2-({[trans-4-(Aminomethyl)cyclohexyl]carbonyl}amino)-3-oxo-3-{[4-(2H-tetrazol-5-yl)phenyl]amino}propyl]-N-[2-(diethylamino)ethyl]-6-ethylbiphenyl-3-carboxamide hydrochloride]",0.36,13
"COc1ccc(-c2ccc(C[C@H](NC(=O)[C@H]3CC[C@H](CN)CC3)C(=O)Nc3ccc(-c4nnn[nH]4)cc3)cc2)cc1S(=O)(=O)N1CCOCC1 [Example 24, trans-4-(Aminomethyl)-N-[(2S)-3-[4′-methoxy-3′-(morpholin-4-ylsulphonyl)biphenyl-4-yl]-1-oxo-1-{[4-(1H-tetrazol-5-yl)phenyl]amino}propan-2-yl]cyclohexanecarboxamide hydrochloride]",0.09,2
"Cc1ccc(S(=O)(=O)N(C)C)cc1-c1ccc(C[C@H](NC(=O)[C@H]2CC[C@H](CN)CC2)C(=O)Nc2ccc3[nH]c(=O)[nH]c3c2)cc1 [Example 25, trans-4-(Aminomethyl)-N-{(2S)-3-[5′-(dimethylsulphamoyl)-2′-methylbiphenyl-4-yl]-1-oxo-1-[(2-oxo-2,3-dihydro-1H-benzimidazol-5-yl)amino]propan-2-yl}cyclohexanecarboxamide hydrochloride]",0.15,6.1
"Cc1ccc(S(=O)(=O)N2CCOCC2)cc1-c1ccc(C[C@H](NC(=O)[C@H]2CC[C@H](CN)CC2)C(=O)Nc2ccc3[nH]c(=O)[nH]c3c2)cc1 [Example 26, trans-4-(Aminomethyl)-N-{(2S)-3-[2′-methyl-5′-(morpholin-4-ylsulphonyl)biphenyl-4-yl]-1-oxo-1-[(2-oxo-2,3-dihydro-1H-benzimidazol-5-yl)amino]propan-2-yl}cyclohexanecarboxamide hydrochloride]",0.18,6.1
"NC[C@H]1CC[C@H](C(=O)N[C@@H](Cc2ccc(-c3cccc(C(=O)NCCN4CCOCC4)c3)cc2)C(=O)Nc2ccc(-c3nnn[nH]3)cc2)CC1 [Example 27, 4′-[(2S)-2-({[trans-4-(Aminomethyl)cyclohexyl]carbonyl}amino)-3-oxo-3-{[4-(1H-tetrazol-5-yl)phenyl]amino}propyl]-N-[2-(morpholin-4-yl)ethyl]biphenyl-3-carboxamide hydrochloride]",0.19,6
"Cc1ccc(N(C)C)cc1-c1ccc(C[C@H](NC(=O)[C@H]2CC[C@H](CN)CC2)C(=O)Nc2ccc(-c3nnn[nH]3)cc2)cc1 [Example 28, trans-4-(Aminomethyl)-N-[(2S)-3-[5′-(dimethylamino)-2′-methylbiphenyl-4-yl]-1-oxo-1-{[4-(1H-tetrazol-5-yl)phenyl]amino}propan-2-yl]cyclohexanecarboxamide hydrochloride]",0.26,1.5
"Cc1ccc(-c2ccc(C[C@H](NC(=O)[C@H]3CC[C@H](CN)CC3)C(=O)Nc3ccc(-c4nn[nH]n4)cc3)cc2)cc1NC(=O)C1CCOCC1 [Example 29, N-{4′-[(2S)-2-({[trans-4-(Aminomethyl)cyclohexyl]carbonyl}amino)-3-oxo-3-{[4-(2H-tetrazol-5-yl)phenyl]amino}propyl]-4-methylbiphenyl-3-yl}tetrahydro-2H-pyran-4-carboxamide hydrochloride]",0.3,11
